Structures can show the parent of a compound that is named as a salt. Where two headings read alike, the source gives them in different places.
How the values were obtained:
Design in all cases: species or system porcine
[1] = molecular target: T1, Amyloid-beta(1-42) oligomer binding to heparin (HS-GAG) (Homo sapiens, UniProt P05067); test: Inhibition of Amyloid-beta(1-42) oligomer binding to immobilized heparin-BSA (ELISA); details: for IC50: co-incubation on heparin-BSA plates, read-out: Abeta42/Heparin Activity (IC-50); for inhibition at 30 µM: read-out: Abeta42/Heparin Activity (% inhibition class)
T1 construct: Beta-amyloid (1-42) was purchased from rPeptide (Cat. No. A1163); purchased rPeptide A1163
T1 sequence (P05067 672-713): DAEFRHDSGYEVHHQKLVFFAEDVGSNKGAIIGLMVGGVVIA
Protocol: (§1) Porcine intestinal mucosa heparin conjugated to Bovine Serum Albumin (Heparin-BSA) was prepared as described (Najjam, S. et al. 1997, Cytokine 12, 1013-1022). Heparin is a sulfated HS-GAG and is commonly used as a HS-GAG in biochemical and binding assays (Lindahl, U. and Kjellen, L. (2013) ibid). Heparin-BSA at 0.01 mg/ml in Phosphate Buffered Saline (PBS; pH 7.4) was added to a 96 well polystyrene ELISA plate (NUNC Cat. No. 449824; 100 μl per well) and incubated Over Night (ON) at 4 degrees Celsius. For negative controls, ELISA plates were coated with BSA instead of Heparin-BSA, using the same procedure. Following the incubation, the plate was washed consecutively, by immersion, with de-ionized water and PBS (pH 7.4). The ELISA plate was then blocked with nonfat milk (2%, 200 μl per well) for 2 hours at Room Temperature (RT) with gentle shaking. Following blocking, the plate was washed with de-ionized water then PBS (pH 7.4). GBAPs were dissolved and diluted in PBS (pH 6.5, supplemented with 0.1% BSA) at desired concentrations, added to the ELISA plates containing immobilized Heparin-BSA (100 μl per well) and incubated for 2 hours at RT with gentle shaking. Following incubation, the plate was washed with de-ionized water and three times with PBS (pH 6.5) plus Tween. Bound GBAP was detected by a monoclonal antibody specific for that GBAP, followed by incubation with secondary antibody conjugated to horseradish peroxidase (HRP). Antibody was diluted in PBS (pH 6.5 supplemented with 1% BSA). Following each incubation with antibody, the plate was washed with de-ionized water and three times with PBS (pH 6.5) wash buffer containing 0.1% Tween. The peroxidase substrate chromogen, TMB (Dako Cat. No. S1599) was added (100 μl per well) to the ELISA plate and incubated at room temperature. After 5 minutes ELISA Stop Solution (hydrochloric acid 1N, sulfuric acid 3N) was added (100 μl per well) to stop the peroxidase catalyzed colorimetric reaction. The Optical Density of the samples was measured at 450 nm using an ELISA plate reader (BioTek Synergy H1). Following color development, the % inhibition compared to control (BSA-coated plates) was determined. IC-50s were calculated using GraphPad Prism software.
(§2) The assay was performed as described in Example 43, with the following modifications. Following to coating the plates with Heparin-BSA, plates were washed as described. The compounds were dissolved in DMSO at 10 mM final concentration and further diluted prior to assay. DMSO concentration in the screening well was up to 2%. Individual compounds were co-incubated with Beta-amyloid peptides on plates containing immobilized heparin. Beta-amyloid (1-42) was purchased from rPeptide (Cat. No. A1163) and used to prepare oligomers according to Stine et al., 2003 (J Biol Chem. 278(13):11612-22) as follows. 1,1,1,3,3,3-Hexafluoro-2-propanol- (HFIP; Sigma Cat. No. 105228)-treated Beta amyloid (1-42) was dissolved in dry DMSO (Sigma Cat. No. D2650) to 5 mM concentration. Dissolved Beta amyloid (1-42) was then diluted to 100 μM in ice-cold cell culture medium (phenol red-free Ham's F-12; Caisson Labs, Cat. No. HFL05), followed immediately by vortexing for 30 seconds, and incubating at 4 degrees Celsius for 24 h. Resulting Beta amyloid (1-42) oligomers were centrifuged at 12,000 rpm for 10 min at 4 degree Celsius to remove aggregates. Oligomers were then quickly frozen and kept in aliquots at −80 degrees Celsius. Beta-amyloid (1-40) from rPeptide (Cat No. A1153) was dissolved in DMSO, quickly frozen and kept in aliquots at −80 degrees Celsius. Beta-amyloid (1-42) oligomers or Beta-amyloid (1-40) diluted in PBS (pH 6.5, supplemented with BSA, 0.1%) were added to the ELISA plate (100 μl per well) and incubated for 2 hours at RT with gentle shaking. Following the incubation, the plate was washed with de-ionized water and three times with PBS (pH 6.5) plus Tween. […]

[2] = molecular target: Amyloid-beta(1-40) binding to heparin (HS-GAG) (Homo sapiens, UniProt P05067); test: Inhibition of Amyloid-beta(1-40) binding to immobilized heparin-BSA (ELISA); details: for IC50: co-incubation on heparin-BSA plates; for inhibition at 30 µM: read-out: Abeta40/Heparin Activity (% inhibition class)
Chain of Amyloid-beta(1-40) binding to heparin (HS-GAG) (P05067 672-711): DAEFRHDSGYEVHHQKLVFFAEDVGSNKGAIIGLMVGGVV
Protocol: as §1, §2

[3] = molecular target: Tau binding to heparin (HS-GAG) (Homo sapiens, UniProt P10636); test: Inhibition of Tau binding to immobilized heparin-BSA (ELISA); details: for inhibition at 30 µM: read-out: Tau/Heparin Activity (% inhibition class)
Chain of Tau binding to heparin (HS-GAG) (P10636 with tags, fused parts or gaps): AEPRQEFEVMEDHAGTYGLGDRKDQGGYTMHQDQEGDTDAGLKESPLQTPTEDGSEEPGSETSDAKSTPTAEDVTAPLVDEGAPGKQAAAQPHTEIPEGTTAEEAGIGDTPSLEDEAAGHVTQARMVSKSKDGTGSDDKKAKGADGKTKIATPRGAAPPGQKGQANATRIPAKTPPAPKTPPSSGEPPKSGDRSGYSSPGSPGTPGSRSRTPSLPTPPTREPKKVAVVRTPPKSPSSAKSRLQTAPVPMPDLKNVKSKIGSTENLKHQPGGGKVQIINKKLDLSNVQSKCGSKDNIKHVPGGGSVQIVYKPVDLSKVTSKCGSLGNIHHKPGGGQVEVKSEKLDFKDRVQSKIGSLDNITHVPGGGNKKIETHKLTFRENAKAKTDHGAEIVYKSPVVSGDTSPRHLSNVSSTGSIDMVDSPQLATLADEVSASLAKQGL
Protocol: as §1
The assay was performed as described in Example 43, with the following modifications. Following to coating the plates with Heparin-BSA, plates were washed as described. The compounds were dissolved in DMSO at 10 mM final concentration and further diluted prior to assay. DMSO concentration in the screening well was up to 2%. Individual compounds were co-incubated with Tau on plates containing immobilized heparin. Tau purchased from rPeptide (Cat. No. T1001) was dissolved in DMSO (Sigma Cat. No. D2650), quickly frozen and kept in aliquots at −80 degrees Celsius. Tau dissolved in PBS (pH 6.5, supplemented with BSA, 0.1%) was added to the ELISA plate (100 μl per well) and incubated for 2 hours at RT with gentle shaking. Following the incubation, the plate was washed with de-ionized water and three times with PBS (pH 6.5) plus Tween. Bound Tau was detected by anti-Tau Monoclonal Antibody D-8 (Santa Cruz Cat. No. sc-166060), followed by secondary anti-IgG antibody conjugated to HRP (R&D System, Cat. No. HAF007). Following to color development with TMB, as described in Example 43, the Optical Density of the samples was measured at 450 nm using an ELISA plate reader. Following color development, the % inhibition compared to control (no compound, DMSO control) for every compound was determined.
An example of inhibition curve is shown in FIG. 3 for Inhibitor Compounds 3 and 6. As described in Example 43, Heparin in the form of Heparin-BSA conjugate is used as a source of HS-GAG. For each compound IC-50 value in Tau—heparin-BSA binding assay is shown in […]. In some cases IC-50 was not measured and […] at 30 μM compound concentration is shown instead. […]

[4] = Abeta40/Heparin Activity (IC-50), Abeta(1-40)
[5] = Tau/Heparin Activity (IC-50), Tau, heparin-BSA
[6] = 30 μM compound, Abeta(1-42) oligomers, heparin-BSA
[7] = 30 μM compound, Abeta(1-40), heparin-BSA
[8] = 30 μM compound, Tau, heparin-BSA

SMILES	IC50 ([1]; Abeta(1-42) oligomers)	IC50 [2, 4]	IC50 [3, 5]	inhibition at 30 µM [1, 6]	also measured
Cc1cc(-n2ccnc2)ccc1/C=N/Nc1ccnc2cc(Cl)ccc12 [Compound 1, (E)-4-((E)-(4-(1H-imidazol-1-yl)-2-methylbenzylidene)hydrazono)-7-chloro-1,4-dihydroquinoline]	2.3 µM	–	–	–	IC50 ([2]; Abeta(1-40), read-out: Abeta40/Heparin Activity (IC-50)): 3.67 µM; IC50 ([3]; Tau, heparin-BSA, read-out: Tau/Heparin Activity (IC-50)): 1.38 µM
Cc1ncn(-c2ccc(/C=N/Nc3ccnc4cc(Cl)ccc34)cc2)c1C [Compound 2, (E)-7-chloro-4-((E)-(4-(4,5-dimethyl-1H-imidazol-1-yl)benzylidene)hydrazono)-1,4-dihydroquinoline]	30.7 µM	22.9 µM	4.42 µM	–	–
Clc1ccc2c(N/N=C/c3ccc(-n4cccn4)cc3)ccnc2c1 [Compound 3, (E)-4-((E)-(4-(1H-pyrazol-1-yl)benzylidene)hydrazono)-7-chloro-1,4-dihydroquinoline]	2.36 µM	2.75 µM	1.56 µM	–	–
C[N+](C)(C)Cc1ccc(/C=N\Nc2ccnc3ccc(Cl)cc23)cc1 [Compound 4, (Z)-1-(4-((2-(6-chloroquinolin-4-yl)hydrazineylidene)methyl)phenyl)—N,N,N-trimethylmethanaminium iodide]	42.7 µM	51.3 µM	29.2 µM	–	–
Fc1ccc2c(N/N=C/c3ccc(-n4ccnc4)cc3)ccnc2c1 [Compound 5, (E)-4-(2-(4-(1H-imidazol-1-yl)benzylidene)hydrazinyl)-7-fluoroquinoline]	–	3.33 µM	31.4 µM	–	inhibition at 30 µM [1]: < 30%
Fc1ccc2c(N/N=C/c3ccc(CN4CCOCC4)cc3)ccnc2c1 [Compound 6, (E)-4-(4-((2-(7-fluoroquinolin-4-yl)hydrazono)methyl)benzyl)morpholine]	–	–	2.27 µM	> 30%	inhibition at 30 µM [2, 7]: > 30%
CN1CCN(Cc2ccc(/C=N/Nc3ccnc4cc(Cl)ccc34)cc2)CC1 [Compound 7, (E)-7-chloro-4-(2-(4-((4-methylpiperazin-1-yl)methyl)benzylidene)hydrazinyl)quinolone]	–	25.2 µM	15.5 µM	< 30%	–
C(=N\Nc1ccc2c3c(cccc13)CC2)/c1ccc(-n2ccnc2)cc1 [Compound 8, (E)-1-(4-((2-(1,2-dihydroacenaphthylen-5-yl)hydrazineylidene)methyl)phenyl)-1H-imidazole]	–	–	–	–	inhibition at 30 µM [1]: < 30%; inhibition at 30 µM [2]: < 30%; inhibition at 30 µM [3]: < 30%
C[n+]1ccc(/C=N\Nc2ccnc3ccccc23)cc1 [Compound 9, (Z)-1-methyl-4-((2-(quinolin-4-yl)hydrazono)methyl)pyridin-1-ium iodide]	–	–	–	< 30%	inhibition at 30 µM [2, 7]: < 30%; inhibition at 30 µM [3, 8]: < 30%
O=S1(=O)CCN(Cc2ccc(/C=N/Nc3ccnc4cc(F)ccc34)cc2)CC1 [Compound 10, (E)-4-(4-((2-(7-fluoroquinolin-4-yl)hydrazono)methyl)benzyl)thiomorpholine 1,1-dioxide]	–	35.6 µM	–	< 30%	inhibition at 30 µM [3, 8]: < 30%
COc1cc2nccc(NN=Cc3ccc(-n4ccnc4)c(C)c3)c2cc1OC [Compound 11, 4-(2-(4-(1H-imidazol-1-yl)-3-methylbenzylidene)hydrazineyl)-6,7-dimethoxyquinoline hydrochloride]	–	–	3.3 µM	–	inhibition at 30 µM [1]: < 30%; inhibition at 30 µM [2]: > 30%
COc1ccc2c(NN=Cc3ccc(-n4ccnc4)c(C)c3)ccnc2c1 [Compound 12, 4-(2-(4-(1H-imidazol-1-yl)-3-methylbenzylidene)hydrazineyl)-7-methoxyquinoline]	–	17.9 µM	13.1 µM	–	inhibition at 30 µM [1]: < 30%
COc1cc2nccc(N/N=C/c3ccc(-n4ccnc4)c(OC)c3)c2cc1OC [Compound 13, (E)-4-(2-(4-(1H-imidazol-1-yl)-3-methoxybenzylidene)hydrazineyl)-6,7-dimethoxyquinoline phosphate]	–	–	–	–	inhibition at 30 µM [1]: < 30%; inhibition at 30 µM [2]: < 30%; inhibition at 30 µM [3]: < 30%
Clc1ccc2c(N/N=C/c3ccc(-n4ccnc4)nc3)ccnc2c1 [Compound 14, (E)-4-(2-((6-(1H-imidazol-1-yl)pyridin-3-yl)methylene)hydrazineyl)-7-chloroquinoline hydrochloride]	8.14 µM	7.77 µM	20.3 µM	–	–
Cc1ncn(-c2ccc(/C=N\Nc3ncnc4cc(Cl)ccc34)cn2)c1C [Compound 15, 7-chloro-4-(2-((6-(4,5-dimethyl-1H-imidazol-1-yl)pyridin-3-yl)methylene)hydrazineyl)quinazoline hydrochloride]	18.9 µM	23 µM	67.9 µM	–	–
C/C(=N\Nc1ncnc2cc(Cl)ccc12)c1cccc(CN(C)C)c1 [Compound 29, 1-(3-(1-(2-(7-chloroquinazolin-4-yl)hydrazineylidene)ethyl)phenyl)—N,N-dimethylmethanamine]	–	–	32.4 µM	> 30%	–
C/C(=N\Nc1ncnc2cc(Cl)ccc12)c1ccc(-n2cncn2)nc1 [Compound 32, (E)-4-(2-(1-(6-(1H-1,2,4-triazol-1-yl)pyridin-3-yl)ethylidene)hydrazineyl)-7-chloroquinazoline]	–	–	–	< 30%	inhibition at 30 µM [3]: < 30%
